The assay concerns MEK1/2 (ERK1/2 phosphorylation). In words: IC50 determination in virus-infected cells, pERK/ERK ratio by WES. In kind it is cell-based, Homo sapiens. The settings on record: for IC50: Homo sapiens. The procedure: Calu-3 and Caco-2 cells were seeded in 24-well plates (Greiner Bio-One GmbH, Frickenhausen, Germany) and grown to 90% confluence. The cells were washed once with infection medium [IMDM supplemented with 0.2% bovine serum albumin (BSA) (Carl Roth GmbH + Co. KG, Karlsruhe, Germany) and 1% penicillin–streptomycin] prior to infection with a multiplicity of infection (MOI) of 0.01 of IAV PR8 or SARS-CoV-2 for 1 h in 200 µL of infection medium per well. Afterwards, the virus inoculum was removed completely, and the cells were washed once with infection medium and then treated with 1 mL per well of different concentrations of zapnometinib in infection medium with 1% dimethyl sulfoxide (DMSO) (Merck Millipore, Burlington, MA, USA) for 24 h at 37°C, 5% CO2. Supernatants were harvested and stored at −80°C for subsequent determination of virus titer and EC50 value. Cell lysates were prepared as described in the “Preparation of cell lysates and WES™ analysis” section for WES™ analysis.
Cells were lysed using cold modified RIPA buffer [0.24% (w/v) tris base (Sigma-Aldrich, St. Louis, Missouri, USA), 0.88% (w/v) NaCl (Carl Roth, Karlsruhe, Germany), 0.2% (v/v) 500 mM ethylenediaminetetraacetic acid (EDTA) (Sigma-Aldrich, St. Louis, Missouri, USA), 1% (v/v) Triton X-100 (Sigma-Aldrich, St. Louis, Missouri, USA), 0.5% (w/v) sodium deoxycholate (Sigma-Aldrich, St. Louis, Missouri, USA), 0.1% (w/v) sodium dodecyl sulfate (SDS) (Carl Roth, Karlsruhe, Germany), 10% (v/v) glycerol (Carl Roth, Karlsruhe, Germany), 0.05% phenylmethylsulfonyl fluoride (PMSF) (Carl Roth, Karlsruhe, Germany), 0.01% Benzonase® Nuclease (Sigma-Aldrich, St. Louis, Missouri, USA), protease inhibitor cocktail (Roche, Basel, Switzerland), and phosphatase inhibitor cocktail (Roche, Basel, Switzerland) in water]. Determination of the protein concentration was performed using the Pierce™ BCA Protein Assay Kit (Thermo Fisher Scientific Inc., Waltham, MA, USA) according to the manufacturer’s instructions. The samples were analyzed by Wes™ using a total protein concentration of 0.25–0.5 µg/µL for each sample, the Jess/Wes Separation kit (12–230 kDa), primary antibodies against ERK1/2, p44/42 MAPK (137F5) Rabbit mAb (Cell Signaling Technology, Danvers, MA, USA, Cat. No. 4695S) and phospho-ERK1/2 (pERK1/2), Phospho-p44/42 MAPK (Erk1/2) (Thr202/Tyr204) (D13.14.4E), XP® Rabbit mAb (Cell Signaling Technology, Danvers, MA, USA, Cat. no. 4370S) in a 1:50 dilution, anti-Influenza A virus Nucleoprotein (NP) antibody (rabbit MAb) (Sino Biological, Beijing, China Cat.no 40208-R010) in a 1:150 dilution, SARS-CoV-2 nucleocapsid protein antibody (ProSci Inc., Poway, CA, USA, Cat. no. 35-580) in a 1:100 dilution, the anti-goat, anti-rabbit, and anti-mouse detection modules, and the EZ Standard Pack 1 (12–230 kDa), according to the manufacturer’s instructions. Analysis of the obtained data was performed using the Compass for SW 4.1.0 software, Microsoft Excel, and the GraphPad Prism 9.2.0 software. Ratios were calculated from the area under the curve of the respective detected signals.
Twenty-four hours before the experiment, the growth medium was exchanged to medium with respective FBS or BSA concentration. Then, cells were stimulated by the addition of tumor necrosis factor alpha (TNF-α) (Sigma-Aldrich, St. Louis, Missouri, USA) for 30 min at 37°C, 5% CO2, followed by treatment with different zapnometinib concentrations and a DMSO (solvent) control for 1 h. For determination of the IC50 value in cells infected with IAV PR8 or SARS-CoV-2, cells were infected with the respective virus and treated with zapnometinib for 24 h as described in the “Virus yield reduction assay” section. After incubation, cell lysates were prepared, and the samples were analyzed by WES™ as described in the “Preparation of cell lysates and WES™ analysis” section. The pERK/ERK ratio was calculated and normalized to the solvent control. […]

Molecules are shown by their SMILES. Where two headings read alike, the source gives them in different places.

Regarding `O=C(O)c1ccc(F)c(F)c1Nc1ccc(I)cc1Cl` [zapnometinib, 2-(2-chloro-4-iodophenylamino)-N-3,4-difluoro benzoic acid], the “Level of MEK activation (ERK phosphorylation) at EC50” value (shortened to “Level of MEK activation”) (Caco-2 cells, IAV PR8, interpolated at EC50 5.72 µM) is given as 37%; the “Level of MEK activation” value (Caco-2 cells, SARS-CoV-2, interpolated at EC50 22.9 µM) is 25%; the “Level of MEK activation” value (Calu-3 cells, IAV PR8, interpolated at EC50 7.13 µM) is on record as 25%; the “Level of MEK activation” value (Calu-3 cells, SARS-CoV-2, interpolated at EC50 19.7 µM) came to 10%. Moreover, the IC50 was 2240 nM (Caco-2, 24 h, read-out: IC50 value (ERK phosphorylation) in infected cells, IAV PR8-infected Caco-2 cells, MOI 0.01, 0.2% BSA, 24 h); 5650 nM (Caco-2, 24 h, read-out: IC50 value (ERK phosphorylation) in infected cells, SARS-CoV-2-infected Caco-2 cells, MOI 0.01, 0.2% BSA, 24 h, bottom plateau constrained to 0); 1010 nM (Calu-3, 24 h, read-out: IC50 value (ERK phosphorylation) in infected cells, IAV PR8-infected Calu-3 cells, MOI 0.01, 0.2% BSA, 24 h); 1990 nM (Calu-3, 24 h, read-out: IC50 value (ERK phosphorylation) in infected cells, SARS-CoV-2-infected Calu-3 cells, MOI 0.01, 0.2% BSA, 24 h).

For orientation: IC50 means the point on the concentration scale where inhibition reaches its midpoint.

(Values after article PMC10641236, “Influenza A virus replication has a stronger dependency on Raf/MEK/ERK signaling pathway activity than SARS-CoV-2” (Frontiers in Cellular and Infection Microbiology, 2023).)
